Measurements as given in PubChem BioAssay AID852 (PCMD, 2007).

Target: Coagulation factor XII (Homo sapiens) (UniProt P00748)
Test: human FXIIa protease inhibitors, dose response, biochemical, confirmation of 1536-well hits (AID 852)
Conditions: purified human plasma FXIIa, fluorogenic AMC substrate, 384-well, 2 h

Coagulation factor XII (Homo sapiens), sequence (P00748 20-372 limits assumed): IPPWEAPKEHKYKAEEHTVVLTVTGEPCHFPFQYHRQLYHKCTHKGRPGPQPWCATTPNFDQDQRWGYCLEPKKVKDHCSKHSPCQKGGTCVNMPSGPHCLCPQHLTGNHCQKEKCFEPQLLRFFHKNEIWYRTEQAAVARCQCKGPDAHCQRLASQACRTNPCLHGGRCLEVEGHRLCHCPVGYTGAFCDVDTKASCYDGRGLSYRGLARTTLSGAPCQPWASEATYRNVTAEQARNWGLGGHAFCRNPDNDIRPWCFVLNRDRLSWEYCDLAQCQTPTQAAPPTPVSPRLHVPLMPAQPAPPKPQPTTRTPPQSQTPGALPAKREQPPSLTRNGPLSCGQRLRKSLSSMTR
Coagulation factor XII (Homo sapiens), sequence (P00748 373-615 limits assumed): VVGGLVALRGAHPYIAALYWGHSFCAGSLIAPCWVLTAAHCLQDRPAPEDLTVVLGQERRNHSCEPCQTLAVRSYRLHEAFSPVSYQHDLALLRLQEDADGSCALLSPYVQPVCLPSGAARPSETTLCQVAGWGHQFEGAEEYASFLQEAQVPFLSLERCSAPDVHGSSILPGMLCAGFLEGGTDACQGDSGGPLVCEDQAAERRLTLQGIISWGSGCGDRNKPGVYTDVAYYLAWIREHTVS

Row | Structure (SMILES) | IC50 [µM]
1 | Cc1ccc(C(=O)n2nc(-c3cccnc3)nc2N)cc1 | 0.796
2 | O=C(Oc1ccc(Cl)c2cccnc12)c1ccco1 | 21.6
3 | O=C(Oc1ccc2c3c(c(=O)oc2c1)CCC3)c1ccco1 | 6.22
